In ChEMBL document CHEMBL1128894, “Enzymatic cyclization of nicotinamide adenine dinucleotide phosphate (NADP)” (Bioorg Med Chem Lett, 1995) one finds EC50 data, which are given here for three molecules.

A word on the EC50: it is the concentration that produces a half-maximal response.

For the assay, the species on record is Rattus norvegicus. Put plainly: Effective concentration for calcium mobilization (Ca 2+ release) in rat brain microsomes. Type of assay: functional.
As to `N=c1c2ncn3c2ncn1[C@@H]1O[C@H](COP(=O)(O)OP(=O)(O)OC[C@H]2OC3[C@H](O)[C@@H]2O)[C@@H](O)[C@H]1O`, the EC50 is 22 µM.

For `O=P(O)(O)O[C@@H]1[C@H](O)[C@H](O)[C@@H](OP(=O)(O)O)[C@H](OP(=O)(O)O)[C@H]1O` [INS(1,4,5)P3], the EC50 is 0.1 µM.

Regarding `N=c1c2ncn3c2ncn1[C@@H]1O[C@H](COP(=O)(O)OP(=O)(O)OC[C@H]2O[C@@H]3[C@H](OP(=O)(O)O)[C@@H]2O)[C@@H](O)[C@H]1O`, the concentration for a half-maximal effect (EC50) stood at 9.2 µM.
